Laboratory results reported in publication PMC6756013, “B591, a novel specific pan-PI3K inhibitor, preferentially targets cancer stem cells” (Oncogene, 2019).

Assays:
DNA-PK = DNA-PK (Homo sapiens, UniProt P78527); test: Biochemical kinase profiling (Life Technologies)
Experimental: (§1) Purified PI3K Class I Lipid Kinase, including p110α/p85α, p110β/p85α, p110γ, and p110δ/p85α (Promega, Madison, WI, USA), was respectively incubated with B591 for 30 min at room temperature. The activity of PI3K was evaluated using a PI3-Kinase Activity ELISA kit (K-1000s, Echelon, Salt Lake City, UT, USA) according to the manufacture’s instructions. The assay is a competitive ELISA in which the signal is inversely proportional to the amount of PI(3,4,5)P3 produced. After the PI3-Kinase reactions are complete, reaction products are first mixed and incubated with a PI(3,4,5)P3 detector protein, then added to the PI(3,4,5)P3-coated microplate for competitive binding. A peroxidase-linked secondary detector and colorimetric detection is used to detect PI(3,4,5)P3 detector binding to the plate. The colorimetric signal is inversely proportional to the amount of PI(3,4,5)P3 produced by PI3-Kinase. The absorbance was measured at 450 nm with a Multilabel Reader (PerkinElmer, Waltham, MA, USA). ATP competition assays were executed with varying concentrations of ATP, and five concentrations of ATP were 5 μM, 25 μM, 50 μM, 100 μM, and 200 μM respectively. The IC50 values for inhibition of PI3Kβ by B591 were determined at indicated concentrations of ATP. In addition, B591 selectivity was tested against 39 kinases at Life Technologies.

FGFR3 = biological target: T1, FGFR3 (Homo sapiens, UniProt P22607); test: Biochemical kinase profiling (Life Technologies)
T1 construct: purchased Life Technologies
Experimental: as §1

FYN = FYN (Homo sapiens, UniProt P06241); test: Biochemical kinase profiling (Life Technologies)
Experimental: as §1

KDR (VEGFR2) = biological target: T2, KDR (VEGFR2) (Homo sapiens, UniProt P35968); test: Biochemical kinase profiling (Life Technologies)
T2 construct: purchased Life Technologies
Experimental: as §1

MET (cMet) = biological target: T3, MET (cMet) (Homo sapiens, UniProt P08581); test: Biochemical kinase profiling (Life Technologies)
T3 construct: purchased Life Technologies
Experimental: as §1

RD cells = test: Apoptosis assay (Annexin V-FITC); type: cell-based, human; conditions: 48 h
Experimental: Cells were seeded in six-well plates at a density of 2×10^5 cells per well and kept overnight at 37℃ humidified incubator with 5% CO2. The next day, cells were treated with B591 for 48 h. Cells were then collected and stained using Annexin V-FITC Apoptosis Detection Kit I (BD Pharmingen™, Franklin Lakes, NJ, USA) according to manufacturer’s instruction. In brief, cells were washed with cold PBS twice and with binding buffer once, about 1×10^5 cells were resuspended in 100 μl Annexin-V binding buffer, followed by incubation with FITC conjugated Annexin V and propidium iodide (PI) for 15 min at room temperature in the dark. The apoptosis assay was performed by using BD FACSCalibur flow cytometry.
Supplementary Fig. S8. B591 induces G0/G1 cell cycle arrest and apoptosis in tumor cells. […] The cells were harvested and analyzed for cell cycle profile. […] The cells were harvested and processed for apoptosis assay using the Annexin V-FITC Apoptosis Detection Kit. (D) Quantification of flow cytometry analysis of apoptosis. Results were presented as mean ± SD (n = 3). ^***p <0.001, difference versus DMSO-treated control group.

[1] = tested on: SUM-159PT, MCF7 and MDA-MB-231 mammospheres; test: Mammosphere formation assay; type: cell-based, human; conditions: treated 5 days
Experimental: Fig. 4 B591 inhibits CSCs and tumorigenesis. a B591 inhibited mammosphere-formation of SUM-159PT, MCF7, and MDA-MB-231 cells. Mammospheres were cultured as described in Materials and methods section. […] The mammospheres were subsequently passaged for another two generations and each generation of the mammospheres were cultured for 5 days without B591 and then counted under a phase-contrast microscopy. The relative mammosphere-formation ability is shown as percentage, and data represent mean ± SD from three independent experiments. c, d Representative flow cytometry plots show the effect of B591 on CD44^high/CD24^low (c) and ALDH^high (d) breast CSCs population from SUM-159PT cells. e Quantification of flow cytometry analysis of CD44^high/CD24^low and ALDH^high breast CSCs population from SUM-159PT cells. […] The live cells were collected and counted, the same amount of control cells and B591-treated cells were then incubated into the fourth left and right mammary fat pad of mice, respectively, according the indicated number for each group. Tumors were inspected 3 months later, and the tumor initiating frequency (TIF) was calculated with ELDA software. […]
In mammosphere formation assay, mammospheres were cultured in the presence of B591 for 5 days as described above and then were counted and imaged under a phase-contrast microscopy (Nikon, Japan).

T3 sequence (P08581 25-1390): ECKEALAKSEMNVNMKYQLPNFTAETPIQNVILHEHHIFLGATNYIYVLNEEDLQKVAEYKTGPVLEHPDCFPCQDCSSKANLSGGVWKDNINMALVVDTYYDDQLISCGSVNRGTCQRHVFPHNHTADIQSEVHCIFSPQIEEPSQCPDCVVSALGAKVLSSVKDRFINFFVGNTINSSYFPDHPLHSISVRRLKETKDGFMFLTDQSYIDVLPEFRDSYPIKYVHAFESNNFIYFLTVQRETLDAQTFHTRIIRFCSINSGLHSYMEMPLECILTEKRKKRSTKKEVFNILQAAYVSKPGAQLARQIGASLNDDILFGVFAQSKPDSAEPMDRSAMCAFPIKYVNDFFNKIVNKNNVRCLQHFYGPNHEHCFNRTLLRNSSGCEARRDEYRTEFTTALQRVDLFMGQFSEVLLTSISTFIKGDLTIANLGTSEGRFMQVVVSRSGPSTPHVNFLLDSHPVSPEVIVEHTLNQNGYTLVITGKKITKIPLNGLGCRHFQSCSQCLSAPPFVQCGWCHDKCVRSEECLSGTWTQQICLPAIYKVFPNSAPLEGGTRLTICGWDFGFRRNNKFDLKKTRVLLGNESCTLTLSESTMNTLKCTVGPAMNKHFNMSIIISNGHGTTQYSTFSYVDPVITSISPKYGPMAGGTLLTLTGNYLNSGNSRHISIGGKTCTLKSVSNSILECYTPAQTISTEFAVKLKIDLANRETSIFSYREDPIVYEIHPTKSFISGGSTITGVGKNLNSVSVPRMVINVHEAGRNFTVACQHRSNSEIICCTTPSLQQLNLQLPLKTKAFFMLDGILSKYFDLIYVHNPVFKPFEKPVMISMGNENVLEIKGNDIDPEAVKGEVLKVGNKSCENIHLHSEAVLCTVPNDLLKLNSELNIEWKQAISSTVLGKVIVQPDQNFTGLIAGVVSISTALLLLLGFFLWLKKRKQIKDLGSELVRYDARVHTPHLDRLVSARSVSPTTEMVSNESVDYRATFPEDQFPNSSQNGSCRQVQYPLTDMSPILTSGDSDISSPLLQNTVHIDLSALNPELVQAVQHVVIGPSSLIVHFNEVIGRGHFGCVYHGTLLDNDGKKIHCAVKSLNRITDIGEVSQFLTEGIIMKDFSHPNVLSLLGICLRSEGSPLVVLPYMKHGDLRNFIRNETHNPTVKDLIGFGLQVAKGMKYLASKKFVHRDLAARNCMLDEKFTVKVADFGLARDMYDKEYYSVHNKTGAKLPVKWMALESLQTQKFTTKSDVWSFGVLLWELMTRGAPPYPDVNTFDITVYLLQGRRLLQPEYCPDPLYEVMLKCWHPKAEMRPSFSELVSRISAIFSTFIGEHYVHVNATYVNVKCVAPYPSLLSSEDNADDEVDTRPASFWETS
T1 sequence (P22607 23-806): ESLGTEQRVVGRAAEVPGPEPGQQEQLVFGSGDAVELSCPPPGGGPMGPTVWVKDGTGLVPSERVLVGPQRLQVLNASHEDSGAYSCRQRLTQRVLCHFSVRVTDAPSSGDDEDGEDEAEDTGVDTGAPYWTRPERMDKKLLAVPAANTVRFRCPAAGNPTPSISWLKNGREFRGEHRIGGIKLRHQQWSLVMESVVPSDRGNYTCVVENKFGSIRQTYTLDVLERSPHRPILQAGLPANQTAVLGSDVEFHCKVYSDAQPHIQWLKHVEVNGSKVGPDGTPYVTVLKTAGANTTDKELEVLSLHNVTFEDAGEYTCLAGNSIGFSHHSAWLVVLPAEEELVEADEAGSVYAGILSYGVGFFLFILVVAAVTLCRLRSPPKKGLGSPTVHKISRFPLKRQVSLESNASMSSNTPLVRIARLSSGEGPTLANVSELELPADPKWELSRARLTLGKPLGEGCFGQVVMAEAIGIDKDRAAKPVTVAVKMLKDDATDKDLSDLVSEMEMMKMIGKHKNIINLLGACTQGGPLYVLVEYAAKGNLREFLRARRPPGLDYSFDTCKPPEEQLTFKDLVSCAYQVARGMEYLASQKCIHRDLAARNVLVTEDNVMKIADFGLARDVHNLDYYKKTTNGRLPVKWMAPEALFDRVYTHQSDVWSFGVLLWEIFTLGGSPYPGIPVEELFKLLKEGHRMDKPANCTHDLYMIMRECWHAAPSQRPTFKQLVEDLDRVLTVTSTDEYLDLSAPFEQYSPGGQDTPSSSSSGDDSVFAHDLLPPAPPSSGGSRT
FYN, sequence (P06241 whole entry): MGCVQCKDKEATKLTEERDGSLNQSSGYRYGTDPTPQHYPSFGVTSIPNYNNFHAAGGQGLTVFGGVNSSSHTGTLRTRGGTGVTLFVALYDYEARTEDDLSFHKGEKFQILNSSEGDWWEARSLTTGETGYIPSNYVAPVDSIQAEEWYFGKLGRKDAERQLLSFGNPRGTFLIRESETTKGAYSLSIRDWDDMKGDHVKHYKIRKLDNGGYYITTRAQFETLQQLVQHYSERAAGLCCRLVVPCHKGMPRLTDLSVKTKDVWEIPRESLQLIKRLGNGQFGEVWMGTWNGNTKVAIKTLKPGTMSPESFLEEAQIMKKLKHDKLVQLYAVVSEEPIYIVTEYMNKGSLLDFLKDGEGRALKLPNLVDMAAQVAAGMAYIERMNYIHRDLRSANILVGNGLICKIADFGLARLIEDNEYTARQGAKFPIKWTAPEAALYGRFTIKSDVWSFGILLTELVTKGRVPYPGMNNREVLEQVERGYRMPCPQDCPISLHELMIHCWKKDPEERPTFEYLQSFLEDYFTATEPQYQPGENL
T2 sequence (P35968 20-1356): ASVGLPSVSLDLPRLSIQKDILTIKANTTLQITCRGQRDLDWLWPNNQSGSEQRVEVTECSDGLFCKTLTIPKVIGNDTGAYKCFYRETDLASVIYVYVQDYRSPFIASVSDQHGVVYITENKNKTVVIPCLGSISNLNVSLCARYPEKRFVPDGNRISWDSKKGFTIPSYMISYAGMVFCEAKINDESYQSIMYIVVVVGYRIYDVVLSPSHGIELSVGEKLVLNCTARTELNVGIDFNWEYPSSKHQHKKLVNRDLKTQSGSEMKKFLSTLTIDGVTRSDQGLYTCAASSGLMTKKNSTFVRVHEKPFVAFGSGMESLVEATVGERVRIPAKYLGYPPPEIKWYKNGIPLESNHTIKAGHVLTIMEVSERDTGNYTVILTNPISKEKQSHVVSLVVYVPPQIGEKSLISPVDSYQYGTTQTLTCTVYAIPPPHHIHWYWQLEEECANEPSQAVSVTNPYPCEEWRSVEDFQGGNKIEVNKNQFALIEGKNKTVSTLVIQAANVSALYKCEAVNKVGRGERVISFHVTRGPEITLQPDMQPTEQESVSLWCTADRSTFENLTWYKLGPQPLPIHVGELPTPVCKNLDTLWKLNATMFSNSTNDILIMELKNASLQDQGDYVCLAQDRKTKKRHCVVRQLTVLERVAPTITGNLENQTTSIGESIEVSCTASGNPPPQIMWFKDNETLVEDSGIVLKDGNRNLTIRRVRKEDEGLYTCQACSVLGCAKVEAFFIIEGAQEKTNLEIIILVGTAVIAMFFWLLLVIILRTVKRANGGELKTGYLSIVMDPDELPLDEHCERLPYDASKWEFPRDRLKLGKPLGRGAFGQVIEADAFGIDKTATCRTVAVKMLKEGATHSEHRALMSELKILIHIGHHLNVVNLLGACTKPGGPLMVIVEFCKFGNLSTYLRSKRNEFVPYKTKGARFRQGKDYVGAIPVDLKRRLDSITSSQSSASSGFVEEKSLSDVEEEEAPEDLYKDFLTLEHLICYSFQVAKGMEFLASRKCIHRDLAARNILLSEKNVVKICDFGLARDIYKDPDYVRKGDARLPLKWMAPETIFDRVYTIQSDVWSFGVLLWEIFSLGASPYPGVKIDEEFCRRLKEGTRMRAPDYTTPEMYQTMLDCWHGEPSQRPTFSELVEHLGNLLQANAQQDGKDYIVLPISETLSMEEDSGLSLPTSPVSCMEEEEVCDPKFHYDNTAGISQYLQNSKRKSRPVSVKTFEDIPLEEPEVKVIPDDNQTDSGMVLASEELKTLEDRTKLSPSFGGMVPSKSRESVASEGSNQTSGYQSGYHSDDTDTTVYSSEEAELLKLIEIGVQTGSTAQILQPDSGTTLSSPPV

Cc1cc2c(cc1C)[n+](Cc1ccccc1Br)cn2Cc1ccc2c(c1)CCO2.[Br-] [B591, 3-(2-bromobenzyl)-1-((2,3-dihydrobenzofuran-5-yl)methyl) -5,6-dimethyl-1H-benzo[d]imidazol-3-ium bromide]
IC50 (DNA-PK): 448 µM
IC50 (FGFR3): > 500 µM
IC50 (FYN): > 500 µM
IC50 (KDR (VEGFR2)): > 500 µM
IC50 (MET (cMet)): > 500 µM
Apoptosis induction (RD cells): significant apoptosis inducing effect
Size and number of primary mammospheres [1]: reduced by B591 in a concentration-dependent manner
